Data published in publication PMC5669903.
Several values for one entry are separate records, joined by “and”; a condition that tells them apart may be missing. Identical values can stand only once. Like-named read-outs stand apart in the source and are kept apart here.

Legend:
mutant TMV CP monomer = molecular target: T1, mutant TMV CP monomer (Tobacco mosaic virus, UniProt P69687, R72G/S16G/S50G/Y73G); assay: biochemical; format: binding; details: Kd to mutant CP monomer, MST, 20°C
T1 construct: 6×His; made in house
T1 sequence (P69687 whole entry S16G/S50G/R72G/Y73G): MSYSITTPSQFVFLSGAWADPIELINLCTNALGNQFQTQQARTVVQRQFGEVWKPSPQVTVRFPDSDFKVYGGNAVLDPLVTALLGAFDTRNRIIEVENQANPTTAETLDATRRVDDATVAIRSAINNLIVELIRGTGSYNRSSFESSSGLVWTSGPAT

TMV CP replication = assay: Leaf disc method with western blot of TMV CP
[1] = molecular target: recombinant TMV CP four-layer aggregate discs (Tobacco mosaic virus, UniProt P69687); assay: Disassembly of recombinant TMV CP discs by SEC and TEM
recombinant TMV CP four-layer aggregate discs, sequence (P69687 whole entry): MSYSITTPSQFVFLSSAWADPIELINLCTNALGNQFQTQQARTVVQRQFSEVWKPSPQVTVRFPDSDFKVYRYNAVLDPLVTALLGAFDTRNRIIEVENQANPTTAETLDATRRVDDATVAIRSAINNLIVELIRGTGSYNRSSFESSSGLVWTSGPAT

TMV = assay: Curative activity against TMV, half leaf; format: in vivo, Tobacco mosaic virus; details: for Curative activity against TMV: half leaf
TMV particles = assay: MST binding of NNM to TMV particles; design: species or system Tobacco mosaic virus
mutated CP discs = mutated CP discs (Tobacco mosaic virus, UniProt P69687, R72G/S16G/S50G/Y73G); assay: Disassembly of mutated CP discs by SEC and TEM; format: biochemical; details: 1:20 (CP discs:NNM) ratio
mutated CP discs, sequence (P69687 whole entry R72G/S16G/S50G/Y73G, looked up): as the sequence (P69687 whole entry S16G/S50G/R72G/Y73G) above

[2] = molecular target: wt CP four-layer aggregate discs (Tobacco mosaic virus, UniProt P69687); assay: Disassembly of wt CP discs (isolated from TMV particles) by SEC
wt CP four-layer aggregate discs, sequence (P69687 whole entry): as the sequence (P69687 whole entry) above

TMV CP monomer = TMV CP monomer (Tobacco mosaic virus, UniProt P69687); assay: biochemical; details: Kd to CP monomer
TMV CP monomer, sequence (P69687 whole entry): as above

TMV RNA = assay: ITC binding of NNM to TMV RNA; design: species or system Tobacco mosaic virus; details: 20°C
Mutant CP Discs = molecular target: T2, Mutant CP Discs (Tobacco mosaic virus, UniProt P69687, R72G/S16G/S50G/Y73G); assay: biochemical; format: binding; details: MST, 20°C
T2 construct: 6×His; made in house
T2 sequence (P69687 whole entry S16G/S50G/R72G/Y73G): as the sequence (P69687 whole entry S16G/S50G/R72G/Y73G) above

TMV CP discs [3] = molecular target: T3, TMV CP discs (Tobacco mosaic virus, UniProt P69687); assay: biochemical; format: binding
T3 construct: 6×His (N, cleaved yes); made in house; host or cells: Escherichia coli BL21 (DE3)-plysS, pET28a
T3 sequence (P69687 whole entry): as the sequence (P69687 whole entry) above

TMV CP discs [4] = molecular target: T3, TMV CP discs; format: binding; details: for Kd: 20°C
Excerpt: We next determined the affinity between CP and NNM using two other independent methods, fluorescence spectrum and ITC.

TMV CP mutant [5] = molecular target: T4, TMV CP mutant (Tobacco mosaic virus, UniProt P69687, R72G/S16G/S50G/Y73G); format: binding; details: fluorescence spectrum; 5 mM compounds and 0.5 mM TMV CP; read-out: Kd mutant (Fluo.)
T4 construct: 6×His; made in house
T4 sequence (P69687 whole entry S16G/S50G/R72G/Y73G): as the sequence (P69687 whole entry S16G/S50G/R72G/Y73G) above

TMV CP mutant [6] = molecular target: T4, TMV CP mutant; format: binding; details: ITC, one-set-of-sites model; 5 mM compounds and 0.5 mM TMV CP

Molecule: CNCC(=O)N[C@@H](CO)C(=O)N[C@H]1[C@H](O)[C@@H](O)[C@H](n2ccc(N)nc2=O)O[C@@H]1C(N)=O [NNM, Ningnanmycin]
- Kd (mutant TMV CP monomer): 212 µM and ~212 µM
- bands of the CP in western blot (TMV CP replication; 0.5 mg/mL NNM for 24 h): weak
- bands of the CP in western blot (TMV CP replication; 0.5 mg/mL NNM, after 72 h): not visible
- bands of CP in western blot (TMV CP replication; 500 μg/mL NNM, time not stated): weak
- disassembly of discs into monomeric proteins [1]: completely disassembled into monomeric proteins
- portion of the discs disassembled into monomeric proteins [1]: 60%
- visibility of four-layer aggregate discs by TEM [1]: invisible
- Curative activity against TMV (TMV; 100 μg/mL): 29.8%
- Curative activity against TMV (TMV; 500 μg/mL): 60.0%
- Kd (TMV particles; 20°C): 25.8 µM
- Kd (TMV particles; 25°C): 31 µM
- Kd (TMV particles; 30°C): 52.3 µM
- Kd (TMV particles; from 20 to 30°C): 25.8 to 52.3 µM
- mutated protein discs disassembled into protein monomers (mutated CP discs): approximately 35%
- disassembly of wt CP four-layer aggregate discs [2]: completely disassembled into monomeric proteins
- Kd (TMV CP monomer): 18.6 µM and ~18.6 µM
- Kd (TMV RNA): 16.5 µM
- Kd (Mutant CP Discs; Kd to mutant CP discs): 43.5 µM and ~43.5 µM
- Kd (TMV CP discs [3]; Kd to CP discs): 1.1 to 3.96 µM
- Kd (TMV CP discs [3]; Kd to TMV CP discs): 1.1 µM and 1.29 µM and 3.96 µM and ~1.1 µM
- K (binding constant) to TMV CP discs (TMV CP discs [4]): 534000 ± 27500 M⁻¹
- number of NNM molecules interacting with one CP disc (TMV CP discs [4]): 39 to 41 and 39–41
- ΔG (TMV CP discs [4]): −6.0
- ΔH (TMV CP discs [4]): 17.2 kcal/mol

Molecule: Cytosinpeptidemycin
- Curative activity against TMV (TMV; 100 μg/mL): 11.9%
- Curative activity against TMV (TMV; 500 μg/mL): 48.7%
- anti-TMV activity in words (TMV; 500 μg/mL, vivo experiment): significant anti-TMV activities
- Kd (TMV CP mutant [5]): 250 µM
- Kd (TMV CP mutant [6]): 33 µM
- Kd to mutant CP discs (Mutant CP Discs): No binding
- Kd to mutant CP discs (Mutant CP Discs; listed as cytosinpeptidemycin): no binding
- Kd (TMV CP discs [3]; MST, 20°C, read-out: Kd to TMV CP discs): 4.84 µM
- Kd (TMV CP discs [4]; ITC, one-set-of-sites model): 5.41 µM
- Kd (TMV CP discs [4]; fluorescence spectrum, read-out: Kd to TMV CP discs (Fluo.)): 23.2 µM
